According to patent publication US10626148B2, “Glycopeptides conjugates and uses thereof” (priority 2015, dated 2020):

Assays:
[1] = test system: Vancomycin-resistant E. faecium (VanA, ATCC 51559); test: MIC, micro-dilution broth, VREm; format: cell-based
Method: (§1) Test compounds were assayed in a micro-dilution broth format. Stock solutions were made by serially diluting the compounds using autoclaved millipore water or broth media. The antibacterial activity of the compounds was determined against gram positive bactreia like methicillin-resistant S. aureus (MRSA), vancomycin-intermediate-resistant S. aureus (VISA), vancomycin-sensitive E. faecium (VSE), vancomycin-resistant E. faecalis and vancomycin-resistant E. faecium (VRE). Antibacterial activity of dipicolyl-vancomycin conjugate conjugate (4) in combination with meropemem was determined against gram-negative bacteria such as K. pneumoniae ATCC BAA2146, clinical isolates K. pneumoniae R3949, K. pneumoniae R3934, E. coli R3336 and A. baumanii R676. Bacteria, to be tested, were grown for about 10 h in the suitable media, MRSA, VISA and gram negative bacteria were grown in Yeast-dextrose broth (about 1 g of beef extract, about 2 g of yeast extract, about 5 g of peptone and about 5 g of NaCl in about 1000 mL of sterile distilled water (pH-7)). For solid media, about 5% agar was used along with above mentioned composition. VSE and VRE were cultured in Brain Heart Infusion broth (Himedia). The bacterial samples were freeze dried and stored at −80° C. About 5 μL of these stocks were added to about 3 mL of the nutrient broth or Brain Heart Infusion broth and the culture was grown for about 6 h at about 37° C. prior to the experiments. This 6 h grown culture gives about 10^9 cfu/mL and this was determined by spread plating method. The 6 h grown culture was diluted to give effective cell concentration of about 10^5 cfu/mL which was then used for determining MIC. Compounds were serially diluted, in sterile water (2-fold dilution is employed) in a way that the working concentration was about 10 μM for MRSA, and VSE while for VRE, VISA and gram negative bacteria; it was about 100 μM. About 50 μL of these serial dilutions were added to the wells of 96 well plate followed by the addition of about 150 μL of bacterial solution. The plates were then incubated at about 37° C., 150 rpm in the incubator and O.D at 620 nm was recorded at an interval of about 24 h using TECAN (Infinite series, M200 pro) Plate Reader. Each concentration had triplicate values and the whole experiment was done at least twice and the MIC value was determined by taking the average of triplicate O.D. values for each concentration and plotting it against concentration. The data was then subjected to sigmoidal fitting.

[2] = In-vivo toxicology, systemic toxicity; settings: 100 mg/kg
Method: To evaluate maximum tolerability of the new glycopeptide, systemic toxicity was performed on CD-1 female mice. Each mouse was injected with a 0.2 mL of freshly prepared compound 4 solution in saline. The dose of the compound administered was 100 mg/kg (n=5).

[3] = test system: VRE; test: Cell wall biosynthesis inhibition, UDPMurNAc-pp accumulation; format: cell-based
Method: In order to investigate whether the new installed properties of vancomycin derivative on inhibition of cell wall (peptidoglycan) biosynthesis against VRE, the accumulation of UDP-linked peptidoglycan precursor, UDP-N-acetyl-muramyl-pentadepsipeptide (UDPMurNAc-pp) was determined after treating the bacteria (VRE) with test compounds. Analysis of the cytoplasmic peptidoglycan nucleotide precursor pool was examined using VRE cells grown in 25 mL MHB. Cells were grown to an A600 nm (OD600) of 0.6 and incubated with 130 μg/mL of chloramphenicol for 15 min. Then, test compounds vancomycin (5 μM), compound 4 and physical mixture of compound 4 with zinc sulphate (5 μM) were added and incubated for another 60 min. Cells were collected and washed with sterile water to remove the antimicrobial agents and then extracted with boiling water. The cell extract was then centrifuged and the supernatant lyophilized. Then, the lyophilized powder was dissolved in 2 mL of water and pH was adjusted to 2.0 with 20% phosphoric acid. Now, the UDP-linked cell wall precursors in the solution were analyzed by RP-HPLC monitoring the UV absorbance peak at 260 nm wavelength and confirmed by HR-MS mass spectrometry.

[4] = test system: MRSA; test: Resistance development study, serial passages; format: cell-based, S. aureus; settings: passaged at MIC/2
Method: MIC values of the compound 4 and vancomycin were determined against MRSA as described above. For the next day MIC experiment, the bacterial dilution was made by using the bacteria from sub-MIC concentration of the compounds (at MIC/2). Then, the concentration of this bacteria was adjusted to ˜10^5 CFU/mL based on OD600 and subjected to next MIC assay. After a 24 h incubation period, again bacterial dilution was prepared by using the bacterial suspension from sub-MIC concentration of the compound (at MIC/2) and assayed for another MIC experiment. The process was repeated for 25 passages, and the fold increase in MIC was determined. […] Thus bacteria were unable in acquiring resistance to this compound and this emphasizes the longevity of such compounds in clinics.

[5] = test system: Vancomycin-sensitive E. faecium (ATCC 19634); test: MIC, micro-dilution broth, VSEm; format: cell-based; settings: Enterococcus faecium, ATCC19634
Method: as §1

[6] = test system: meropenem-resistant NDM-1 K. pneumoniae R3934; test: Sepsis infection model in mice; format: in vivo; settings: CD-1 mice, i.p., 1 h and 24 h post-infection
Method: Sepsis infection model: About six-week-old, female CD-1 mice (weight, ˜19-24 g) were used for the experiments. Mice were infected intraperitoneally (i.p.) with a dose of ˜10^6 CFU/mouse of meropenem-resistant NDM-1 K. pneumoniae R3934. Then, mice were treated twice at 1 h and 24 h post-infection with a specified i.p. dose of either saline, meropenem (10 mg/kg), compound 4 (10 mg/kg), or a combination of compound 4 (10 mg/kg) and meropenem (10 mg/kg). Here, colistin (5 mg/kg) was used as a positive control. Mice were euthanized after 48 h post-infection and then liver, spleen, kidney and lungs were collected to find out the bacterial density in these organs. Organs were placed into 10 ml sterile saline on ice, and then homogenized. The dilutions of the homogenate were plated onto agar plates, which were incubated for 24 h at 37° C. The bacterial titer was expressed as log10 CFU/g of organ weight.

Structure (SMILES): CN[C@H](CC(C)C)C(=O)N[C@H]1C(=O)N[C@@H](CC(N)=O)C(=O)N[C@H]2C(=O)N[C@H]3C(=O)N[C@H](C(=O)N[C@H](C(=O)NCCCCCCN(Cc4ccccn4)Cc4ccccn4)c4cc(O)cc(O)c4-c4cc3ccc4O)[C@H](O)c3ccc(c(Cl)c3)Oc3cc2cc(c3O[C@H]2OC(CO)[C@H](O)C(O)C2O[C@H]2CC(C)(N)[C@H](O)C(C)O2)Oc2ccc(cc2Cl)[C@H]1O (stereo partly shown) [Compound 4, Dipicolyl-vancomycin conjugate]
- MIC ([1]; Enterococcus faecium, ATCC51559): 1.2 µM
- fold more active than vancomycin ([1]; VREm (VRE), ratio of MIC values): about 700 fold
- survival at 14 days ([2]; CD-1 female mice): All the mice were found to survive
- LD50 at 14 days ([2]; female, CD-1, mouse, in vivo): > 100 mg/kg
- cell wall biosynthesis inhibition (accumulation of UDPMurNAc-pp, peak at 260 nm) ([3]; 60 min): greater cell wall biosynthesis inhibition compared to vancomycin
- cell wall biosynthesis inhibition (accumulation of UDPMurNAc-pp) ([3]; in presence of Zn2+ (zinc sulphate 5 μM)): enhanced cell wall biosynthesis inhibition
- fold increase in MIC after 25 serial passages [4]: remained the same
- MIC [5]: 0.3 µM
- in-vivo antibacterial activity, bacterial titer in organs ([6]; 10 mg/kg alone): did not show any activity
- in-vivo antibacterial activity, bacterial titer in organs ([6]; compound 4 (10 mg/kg) in combination with meropenem (10 mg/kg)): excellent antibacterial activity
